Reference: patent publication US10683311B2 (priority 2015, dated 2020)

What was measured:
[1] = system: Pyricularia oryzae; assay: microbe, parasite or virus in culture; type: cell-based; details: for Efficacy: inhibition of fungal growth, liquid culture; for inhibition at 20 ppm: Pyricularia oryzae, 120 h, read-out: efficacy (inhibition of fungal growth)
[2] = log P by HPLC on reversed-phase column (C18), EEC Directive 79/831 Annex V.A8; type: physicochemical; details: for chromatographic logP: reversed-phase HPLC column (C18)
Outline: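 Retention time on C18 reversed-phase HPLC at 40 °C, gradient 10% to 95% acetonitrile with either 0.1% aqueous formic acid (Method A) or 0.001 molar ammonium acetate (Method B). Calibrated with unbranched alkan-2-ones (C3–C16) of known log P by linear interpolation between successive alkanones.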

[3] = Method A: 40° C., 0.1% aqueous formic acid and acetonitrile

SMILES | chromatographic logP [2, 3] | inhibition at 20 ppm [1] [%] | logP ([2]; logP Method A) | other results
C[Si](C)(C)c1cc(F)ccc1Oc1ccnc2c(Cl)cccc12 [CMP2, 8-chloro-4-[4-fluoro-2-(trimethylsilyl)phenoxy]quinoline, reference compound] | – | – | – | Efficacy ([1]; 1 ppm, 5 days incubation): 0%; efficacy (inhibition of fungal growth) ([1]; 4 ppm of active ingredient, 5 days incubation): much lower efficacy; Efficacy ([1]; 4 ppm, 5 days incubation): 46%; Efficacy ([1]; 20 ppm, 5 days incubation): 93%
C[Si](C)(C)c1ccccc1Oc1cnc2ccccc2c1 [I.001, 3-[2-(trimethylsilyl)phenoxy]quinoline] | 5.17 | 90 to 100 | – | –
C[Si]1(c2c(F)cccc2Oc2cnc3ccccc3c2)CCC1 [I.008, 3-[3-fluoro-2-(1-methylsiletan-1-yl)phenoxy]quinoline] | 5.39 | 90 to 100 | – | –
C[Si]1(C)OCc2cccc(Nc3cnc4ccccc4c3)c21 [I.010, N-(1,1-dimethyl-1,3-dihydro-2,1-benzoxasilol-7-yl)quinolin-3-amine] | – | 80 to 89 | – | chromatographic logP ([2]; Method B: 40° C., 0.001 molar ammonium acetate solution in water and acetonitrile): 3.15
C[Si](C)(C)c1cc(F)ccc1Oc1cnc2c(Cl)cccc2c1 [I.019] | – | – | – | logP [2, 3]: 5.62; Efficacy ([1]; 1 ppm, 5 days incubation): 45%; Efficacy ([1]; 4 ppm, 5 days incubation): 98%; Efficacy ([1]; 20 ppm, 5 days incubation): 97%
Cc1nc2c(F)c(F)ccc2cc1Oc1ccccc1[Si](C)(C)O [I.026, {2-[(7,8-difluoro-2-methylquinolin-3-yl)oxy]phenyl}(dimethyl)silanol] | 3.51 | 90 to 100 | – | –
Cc1nc2c(F)c(F)ccc2cc1Oc1cccc(F)c1[Si](C)(C)F [I.032, 7,8-difluoro-3-{3-fluoro-2-[fluoro(dimethyl)silyl]phenoxy}-2-methylquinoline] | 4.75 | 90 to 100 | – | –
Cc1nc2ccccc2cc1Oc1ccccc1[Si](C)(C)C [I.047, 2-methyl-3-[2-(trimethylsilyl)phenoxy]quinoline] | 4.85 | 90 to 100 | – | –
C[SiH](c1ccccc1)c1c(F)cccc1Oc1cc2ccccc2nc1Cl (stereo not drawn) [I.062, 2-chloro-3-{3-fluoro-2-[methyl(phenyl)silyl]phenoxy}quinoline] | 5.78 | 90 to 100 | – | –
[O-][n+]1cc(Oc2cccc(F)c2)cc2ccccc21 [VIIa.06, 3-(3-fluorophenoxy)quinoline 1-oxide] | 2.14 | – | – | chromatographic logP ([2]; logP Method A): 2.14
O=[N+]([O-])c1c(F)cccc1Oc1cnc2c(F)c(F)ccc2c1 [Va.01] | – | – | 3.35 | –
Cc1nc2c(F)c(F)ccc2cc1Oc1cccc(F)c1[N+](=O)[O-] [Va.02] | – | – | 3.64 | –
O=[N+]([O-])c1ccccc1Oc1cnc2c(F)c(F)ccc2c1 [Va.03] | – | – | 3.06 | –
Cc1nc2c(F)c(F)ccc2cc1Oc1ccccc1[N+](=O)[O-] [Va.04, 7,8-difluoro-2-methyl-3-(2-nitrophenoxy)quinoline] | 3.37 | – | – | chromatographic logP ([2]; logP Method A): 3.42
O=[N+]([O-])c1c(F)cccc1Oc1cnc2ccccc2c1 [Va.05] | – | – | 3.13 | –
Cc1nc2ccccc2cc1Oc1cccc(F)c1[N+](=O)[O-] [Va.06] | – | – | 3.15 | –
O=[N+]([O-])c1ccccc1Oc1cnc2ccccc2c1 [Va.07] | – | – | 1.62 | –
Cc1nc2ccccc2cc1Oc1ccccc1[N+](=O)[O-] [Va.08] | – | – | 2.64 | –
CC1(C)OB(Cc2ccccc2[Si](C)(C)C)OC1(C)C [XIIa.01] | – | – | 5.68 | –
CC(=O)COc1ccccc1[Si](C)(C)C [XIV.01, 1-[2-(trimethylsilyl)phenoxy]acetone] | 1.39 | – | – | chromatographic logP ([2]; logP Method A): 1.39
C[Si](C)(c1ccccc1)c1ccccc1CBr [XIa.03] | – | – | 5.46 | –
C[Si](C)(c1ccc(Cl)cc1)c1ccccc1CBr [XIa.06, [2-(bromomethyl)phenyl](4-chlorophenyl)dimethylsilane] | 5.94 | – | – | chromatographic logP ([2]; logP Method A): 5.94
